The source of these data is article PMC4742234, “Screening of Drug Metabolizing Enzymes for the Ginsenoside Compound K In Vitro: An Efficient Anti-Cancer Substance Originating from Panax Ginseng” (PLoS ONE, 2016).

Several values for one entry are separate records, joined by “and”; a condition that tells them apart may be missing. Equal entries are not always repeated. Entries after “also recorded” stand apart in the source; their conditions may differ.

Series [1] relates to human liver microsomes (HLMs). Put plainly: Kinetic analysis of CK metabolism in human liver microsomes. It counts as in vitro ADME. To be noted: HLMs 0.5 mg/mL, CK 10–100 μM, 37°C, 30 min, NADPH. The procedure: (§1) The method was conducted according to our previous study with some modifications. The CYP isoform-specific probe reactions used were phenacetin O-deethylation (for CYP1A2), coumarin 7-hydroxylation (for CYP2A6), tolbutamide 4-hydroxylation (for CYP2C9), metoprolol α-hydroxylation (for CYP2D6), chlorzoxazone 6-hydroxylation (for CYP2E1),S-Mephenytoin 4-hydroxylation (for CYP2C19), and midazolam 1-hydroxylation (for CYP3A4). The kinetic study of CK was conducted with HLMs. A 0.2 mL incubation mixture that consisted of CK (as a substrate), the HLMs (0.5 mg/mL) or CYP isoforms (10 pmol), and 0.1 M sodium phosphate buffer (pH 7.4) was pre-warmed for 5 min at 37°C. The reaction was initiated by the addition of 1 mg/mL triphosphopyridine nucleotide (NADPH). All the reagents were dissolved in methanol, and the final solvent concentration in all incubations (including the controls) was 1%. The final incubations were performed in a shaking water bath (37°C) for 30 min. The reactions were stopped by adding 0.2 mL ice-cold acetonitrile, which contains irbesartan (114.9 ng/mL) as the internal standard. The samples were vortexed for 5 min. After centrifugation (12000×g for 10 min), the supernatants were transferred, and aliquots of 20 μL were injected into the HPLC-MS/MS system for analysis. […]

Experiment in series [2]: as above
It counts as in vitro ADME. To be noted: human, human liver microsomes, pH 7.4, HLMs 0.5 mg/mL, CK 10–100 μM, 37°C, NADPH. The procedure:
as §1

For a further series, the target named is CYP3A4 (Homo sapiens, UniProt P08684). The series is described as follows: Metabolic clearance rate of CK with recombinant CYP3A4 under ketoconazole. It counts as in vitro ADME. Set-up: purchased Cypex Ltd. (U.K.). To be noted: recombinant CYP3A4, CK 50 μM, ketoconazole 1 μM. As to the method:
The method was conducted according to our previous study with some modifications. The CYP isoform-specific probe reactions used were phenacetin O-deethylation (for CYP1A2), coumarin 7-hydroxylation (for CYP2A6), tolbutamide 4-hydroxylation (for CYP2C9), metoprolol α-hydroxylation (for CYP2D6), chlorzoxazone 6-hydroxylation (for CYP2E1),S-Mephenytoin 4-hydroxylation (for CYP2C19), and midazolam 1-hydroxylation (for CYP3A4). The kinetic study of CK was conducted with HLMs. A 0.2 mL incubation mixture that consisted of CK (as a substrate), the HLMs (0.5 mg/mL) or CYP isoforms (10 pmol), and 0.1 M sodium phosphate buffer (pH 7.4) was pre-warmed for 5 min at 37°C. The reaction was initiated by the addition of 1 mg/mL triphosphopyridine nucleotide (NADPH). […]
To screen the specific CYP isoform responsible for the CK metabolism, we determined the inhibitory effect of specific inhibitors on the metabolism of CK in the HLMs as described in detail previously. […] The inhibitory effects of the above specific inhibitors on the metabolic clearance rate of CK were evaluated separately to screen the CYP isoforms responsible for the CK metabolism. The relative activity of the CYP isoforms was calculated by dividing the peak area of CK when incubated with the inhibitor by that of CK from the negative controls. […]

A short description of series [3]: Plasma pharmacokinetics of CK in healthy volunteers. The note with it: male, human, 800 mg. The procedure: Note that in our other study carried out in healthy volunteers, 10 healthy male volunteers received administrations of 800 mg pure CK tablets (100mg/tablet, provided by Zhejiang Hisun Pharmaceutical Company Limited, China) swallowed by 150 mL water, then series venous blood samples of 5 mL were collected into EDTA-containing tubes at 0, 0.25, 0.5, 1, 1.5, 2, 2.5, 3, 3.5, 4, 5, 6, 8, 12, 24, 36, 48, 72 and 96h. The plasma samples were analyzed by HPLC-MS/MS, the peak plasma concentration (Cmax) and time to peak plasma concentration (Tmax) were directly obtained from the observed concentration-time data. The area under the plasma concentration-time curve (AUC) from time zero to last measured concentration (AUC(0−t)) was calculated according to the linear trapezoidal rule, the estimate of oral clearance(CL/F) was calculated as CL/F = Dose /AUC(0–t).

Another series has as its target T1, CYP2E1 (Homo sapiens, UniProt P05181).
T1 construct: tissue Cypex Ltd. (U.K.); host or cells: pooled human liver microsomes
Put plainly: Inhibition of CYP2E1 (chlorzoxazone 6-hydroxylation) by CK in HLMs. It counts as in vitro ADME. The procedure:
The method was conducted according to our previous study with some modifications. The CYP isoform-specific probe reactions used were phenacetin O-deethylation (for CYP1A2), coumarin 7-hydroxylation (for CYP2A6), tolbutamide 4-hydroxylation (for CYP2C9), metoprolol α-hydroxylation (for CYP2D6), chlorzoxazone 6-hydroxylation (for CYP2E1),S-Mephenytoin 4-hydroxylation (for CYP2C19), and midazolam 1-hydroxylation (for CYP3A4). The kinetic study of CK was conducted with HLMs. A 0.2 mL incubation mixture that consisted of CK (as a substrate), the HLMs (0.5 mg/mL) or CYP isoforms (10 pmol), and 0.1 M sodium phosphate buffer (pH 7.4) was pre-warmed for 5 min at 37°C. The reaction was initiated by the addition of 1 mg/mL triphosphopyridine nucleotide (NADPH). All the reagents were dissolved in methanol, and the final solvent concentration in all incubations (including the controls) was 1%. The final incubations were performed in a shaking water bath (37°C) for 30 min. The reactions were stopped by adding 0.2 mL ice-cold acetonitrile, which contains irbesartan (114.9 ng/mL) as the internal standard. The samples were vortexed for 5 min. After centrifugation (12000×g for 10 min), the supernatants were transferred, and aliquots of 20 μL were injected into the HPLC-MS/MS system for analysis.
CK (10–100 μM) and a single CYP isoform-specific substrate (with a concentration similar to its corresponding Kmvalue) were used to determine the inhibitory effect of CK on specific CYP isoforms as described in detail previously. Substrates including phenacetin, coumarin, tolbutamide, metoprolol, chlorzoxazone, S-Mephenytoin, and midazolam were used at concentrations of 10, 5, 100, 7.5, 40, 100, and 5 μM, respectively. All incubation conditions were the same as mentioned above. The inhibitory effects on the CYP isoforms were investigated individually by incubating the HLMs in the absence or presence of CK. […]

T1 sequence (P05181 whole entry): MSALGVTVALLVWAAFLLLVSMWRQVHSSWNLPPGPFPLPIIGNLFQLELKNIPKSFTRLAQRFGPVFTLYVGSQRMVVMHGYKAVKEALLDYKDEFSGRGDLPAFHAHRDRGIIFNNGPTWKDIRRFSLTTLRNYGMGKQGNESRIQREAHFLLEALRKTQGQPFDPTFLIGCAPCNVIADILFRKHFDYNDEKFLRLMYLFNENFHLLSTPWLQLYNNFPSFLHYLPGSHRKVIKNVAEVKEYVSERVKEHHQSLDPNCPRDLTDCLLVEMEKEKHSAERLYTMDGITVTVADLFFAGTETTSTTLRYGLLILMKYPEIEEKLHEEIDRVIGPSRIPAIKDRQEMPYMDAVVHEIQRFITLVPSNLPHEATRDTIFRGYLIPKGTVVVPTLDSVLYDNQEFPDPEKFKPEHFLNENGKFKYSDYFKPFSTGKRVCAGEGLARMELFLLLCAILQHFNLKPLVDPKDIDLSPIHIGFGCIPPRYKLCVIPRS
Chain of CYP3A4 (P08684 whole entry, canonical isoform): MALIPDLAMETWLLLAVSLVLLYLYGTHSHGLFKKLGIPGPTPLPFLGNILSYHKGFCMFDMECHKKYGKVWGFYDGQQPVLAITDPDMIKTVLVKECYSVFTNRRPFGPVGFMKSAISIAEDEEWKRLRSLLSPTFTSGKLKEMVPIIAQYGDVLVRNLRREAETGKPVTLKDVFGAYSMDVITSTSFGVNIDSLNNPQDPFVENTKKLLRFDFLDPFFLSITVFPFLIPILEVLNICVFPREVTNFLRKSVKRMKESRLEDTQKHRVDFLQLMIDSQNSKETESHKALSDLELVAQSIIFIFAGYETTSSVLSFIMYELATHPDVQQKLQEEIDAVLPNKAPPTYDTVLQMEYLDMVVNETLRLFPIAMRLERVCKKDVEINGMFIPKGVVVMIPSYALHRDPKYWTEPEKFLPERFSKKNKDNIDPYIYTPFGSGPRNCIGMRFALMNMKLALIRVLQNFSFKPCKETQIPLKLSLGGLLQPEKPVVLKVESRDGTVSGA

As for `CC(C)=CCC[C@](C)(OC1O[C@H](CO)[C@@H](O)[C@H](O)[C@H]1O)[C@H]1CC[C@]2(C)[C@@H]1[C@H](O)C[C@@H]1[C@@]3(C)CC[C@H](O)C(C)(C)[C@@H]3CC[C@]12C` (stereo partly drawn) [CK, 20-O-β-(D-glucopyranosyl)-20(S)-protopanaxadiol], the “Vmax of CK metabolism” value in series [1] is 0.28±0.04 nmol/mg protein/min and 0.2840 nmol/mg protein/min. The Km at 30 min in series [2] is 84.2 ± 21.9 µM. In addition, the “MCR of CK, of that of the control” value at CYP3A4 was 13.2%. The Cmax in series [3] (oral) is about 5 µM; in series [3] (po) it was 4.07 µM. The “inhibitory effect on the activity of CYP2E1” value on CYP2E1 (HLMs, CK 10–100 μM) is “minimal; also recorded: negligible”. Moreover, the IC50 at CYP2E1 (HLMs, chlorzoxazone 40 μM, CK 10–100 μM) was over 100 µM. The “inhibitor potency class for CYP2E1” value against CYP2E1 (classified by IC50 according to Kong et al) is recorded as “weak (weak, if IC50≥100 μg/mL or ≥50 μM)”.
